Laboratory results published in patent US6858591B2, “Antibiotic AA 896 analogs” (Wyeth Holdings Corporation, priority 2001, dated 2005).
≈ marks a conversion by molar mass, not a printed value. Read-outs that look alike come from different tables or passages of the source.

Experiments:
Test in all cases: In vitro MIC, broth dilution
Format in all cases: cell-based
E. coli GC 4559 = conditions: Escherichia coli, GC4559
E. coli GC 4560 = conditions: Escherichia coli, GC4560
E. coli GC 3226 = conditions: Escherichia coli, GC3226
S. marcescens GC 4077 = conditions: Serratia marcescens, GC4077
C. albicans GC 3066 = conditions: Candida albicans, GC3066
M. morganii GC 4531 = conditions: Morganella morganii, GC4531
K. pneumoniae GC 4534 = conditions: Klebsiella pneumoniae, GC4534
E. cloacae GC 3783 = conditions: Enterobacter cloacae, GC3783
P. aeruginosa GC 4532 = conditions: Pseudomonas aeruginosa, GC4532
CNS GC 4537 = system: CNS GC 4537
Method in brief: (§1)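 MIC = lowest antibiotic concentration preventing visible growth after 18 h at 35 °C, ambient air. Inoculum 5×10^5 CFU/ml; drug tested 64-0.06 μg/ml in Mueller-Hinton II broth following NCCLS guidance.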

CNS GC 4538 = system: CNS GC 4538
Method in brief: as §1

CNS GC 4547 = system: CNS GC 4547
Method in brief: as §1

E. faecalis GC 2242 = conditions: Enterococcus faecalis, GC2242
Method in brief: as §1

E. faecalis GC 4555 = conditions: Enterococcus faecalis, GC4555
Method in brief: as §1

E. faecalis GC 842 = conditions: Enterococcus faecalis, GC842
Method in brief: as §1

S. aureus GC 1131 = conditions: Staphylococcus aureus, GC1131
Method in brief: as §1

S. aureus GC 2216 = conditions: Staphylococcus aureus, GC2216
Method in brief: as §1

S. aureus GC 4536 = conditions: Staphylococcus aureus, GC4536
Method in brief: as §1

E. coli GC 2203 = conditions: Escherichia coli, GC2203
P. aeruginosa GC 2214 = conditions: Pseudomonas aeruginosa, GC2214
[1] = S. marcescens GC 4077, read-out: MIC
[2] = C. albicans GC 3066, read-out: MIC
[3] = M. morganii GC 4531, read-out: MIC
[4] = K. pneumoniae GC 4534, read-out: MIC
[5] = E. cloacae GC 3783, read-out: MIC
[6] = P. aeruginosa GC 4532, read-out: MIC
[7] = E. faecalis GC 2242, read-out: MIC
[8] = E. faecalis GC 4555, read-out: MIC
[9] = E. faecalis GC 842, read-out: MIC
[10] = S. aureus GC 1131, read-out: MIC
[11] = S. aureus GC 2216, read-out: MIC
[12] = S. aureus GC 4536, read-out: MIC
[13] = P. aeruginosa GC 2214, read-out: MIC

| SMILES | MIC (E. coli GC 4559) [µg/mL] | MIC (E. coli GC 4560) [µg/mL] | MIC (E. coli GC 3226) [µg/mL] | MIC (S. marcescens GC 4077) [µg/mL] | MIC (C. albicans GC 3066) [µg/mL] | MIC (M. morganii GC 4531) [µg/mL] | MIC (K. pneumoniae GC 4534) [µg/mL] | MIC (E. cloacae GC 3783) [µg/mL] | MIC (P. aeruginosa GC 4532) [µg/mL] | MIC (CNS GC 4537) [µg/mL] | MIC (CNS GC 4538) [µg/mL] | MIC (CNS GC 4547) [µg/mL] | MIC (E. faecalis GC 2242) [µg/mL] | MIC (E. faecalis GC 4555) [µg/mL] | MIC (E. faecalis GC 842) [µg/mL] | MIC (S. aureus GC 1131) [µg/mL] | MIC (S. aureus GC 2216) [µg/mL] | MIC (S. aureus GC 4536) [µg/mL] | MIC (E. coli GC 2203) [µg/mL] | MIC (P. aeruginosa GC 2214) [µg/mL] | further results |
| --- | --- | --- | --- | --- | --- | --- | --- | --- | --- | --- | --- | --- | --- | --- | --- | --- | --- | --- | --- | --- | --- |
| COc1ccc(Cn2c(=O)ccn([C@@H]3OC([C@H](O)[C@H](NCCCNC(=O)[C@@H](NC(=O)[C@H](CCCNC(=N)N[N+](=O)O)NC(=O)N[C@H](C(=O)OCc4ccccc4)C(C)C)[C@@H](O)C(C)C)C(=O)OC(C)(C)C)[C@@H](O[Si](C)(C)C(C)(C)C)[C@H]3O[Si](C)(C)C(C)(C)C)c2=O)cc1 (stereo partly drawn) [Example 26, 1-Benzyl 17-(tert-butyl)(2S,6S,9S,16S)-16-[(R)-[(3R,4R,5R)-3,4-bis{[tert-butyl(dimethyl)silyl]oxy}-5-(3-(4-methoxybenzyl)-2,4-dioxo-3,4-dihydro-1(2H)-pyrimidinyl)tetrahydro-2-furanyl](hydroxy)methyl]-6-(3-{[(2,2-dioxido-2lambda˜1˜-diazanyl)(imino)methyl]amino}propyl)-9-[(1S)-1-hydroxy-2-methylpropyl]-2-isopropyl-4,7,10-trioxo-3,5,8,11,15-pentaazaheptadecane-1,17-dioate] | > 128 | > 128 | > 128 | > 128 | > 128 | > 128 | > 128 | > 128 | > 128 | > 128 | > 128 | > 128 | 128 | > 128 | > 128 | > 128 | > 128 | > 128 | > 128 | 128 |  |
| COc1ccc(Cn2c(=O)ccn([C@@H]3OC([C@H](O)[C@H](NCCCNC(=O)[C@H](CC(C)C)NC(=O)[C@H](CCCNC(=N)N[N+](=O)O)NC(=O)N[C@H](C(=O)OCc4ccccc4)C(C)C)C(=O)OC(C)(C)C)[C@@H](O[Si](C)(C)C(C)(C)C)[C@H]3O[Si](C)(C)C(C)(C)C)c2=O)cc1 (stereo partly drawn) [Example 28, 1-Benzyl 17-(tert-butyl)(2S,6S,9S,16S)-16-[(R)-[(3R,4R,5R)-3,4-bis{[tert-butyl(dimethyl)silyl]oxy}-5-(3-(4-methoxybenzyl)-2,4-dioxo-3,4-dihydro-1(2H)-pyrimidinyl)tetrahydro-2-furanyl](hydroxy)methyl]-6-(3-{[(2,2-dioxido-2lambda˜1˜-diazanyl)(imino)methyl]amino}propyl)-9-isobutyl-2-isopropyl-4,7,10-trioxo-3,5,8,11,15-pentaazaheptadecane-1,17-dioate] | > 128 | > 128 | > 128 | > 128 | > 128 | > 128 | > 128 | > 128 | > 128 | > 128 | > 128 | > 128 | > 128 | > 128 | > 128 | > 128 | > 128 | > 128 | > 128 | > 128 |  |
| COc1ccc(Cn2c(=O)ccn([C@@H]3OC([C@H](O)[C@H](NCCCNC(=O)[C@H](CC(C)C)NC(=O)[C@H](CCCNC(=N)N)NC(=O)N[C@H](C(=O)O)C(C)C)C(=O)OC(C)(C)C)[C@@H](O[Si](C)(C)C(C)(C)C)[C@H]3O[Si](C)(C)C(C)(C)C)c2=O)cc1 (stereo partly drawn) [Example 29, (2S,6S,9S,16S)-6-(3-{[Amino(imino)methyl]amino}propyl)-16-[(R)-[(3R,4R,5R)-3,4-bis{[tert-butyl(dimethyl)silyl]oxy}-5-(3-(4-methoxybenzyl)-2,4-dioxo-3,4-dihydro-1(2H)-pyrimidinyl)tetrahydro-2-furanyl](hydroxy)methyl]-9-isobutyl-2-isopropyl-19,19-dimethyl-4,7,10,17-tetraoxo-18-oxa-3,5,8,11,15-pentaazaicosan-1-oic acid] | > 128 | 128 (≈ 107 µM) | > 128 | 128 (≈ 107 µM) | > 128 | 128 (≈ 107 µM) | 128 (≈ 107 µM) | 128 (≈ 107 µM) | 128 (≈ 107 µM) | > 128 | > 128 | > 128 | 128 (≈ 107 µM) | > 128 | 128 (≈ 107 µM) | > 128 | > 128 | > 128 | > 128 | 128 (≈ 107 µM) |  |
| COc1ccc(Cn2c(=O)ccn([C@@H]3OC([C@H](O)[C@H](NCCCNC(=O)C(NC(=O)[C@H](CCCNC(=N)N[N+](=O)[O-])NC(=O)N[C@H](C(=O)OCc4ccccc4)C(C)C)[C@@H](C)O)C(=O)OC(C)(C)C)[C@@H](O[Si](C)(C)C(C)(C)C)[C@H]3O[Si](C)(C)C(C)(C)C)c2=O)cc1 (stereo partly drawn) [Example 30, 1-Benzyl 17-(tert-butyl)(2S,6S,9S,16S)-16-[(R)-[(3R,4R,5R)-3,4-bis{[tert-butyl(dimethyl)silyl]oxy}-5-(3-(4-methoxybenzyl)-2,4-dioxo-3,4-dihydro-1(2H)-pyrimidinyl)tetrahydro-2-furanyl](hydroxy)methyl]-6-(3-{[(2,2-dioxido-2lambda˜1˜-diazanyl)(imino)methyl]amino}propyl)-9-[(1S)-1-hydroxyethyl]-2-isopropyl-4,7,10-trioxo-3,5,8,11,15-pentaazaheptadecane-1,17-dioate] | > 128 | 64 (≈ 48.7 µM) | > 128 | 128 (≈ 97.4 µM) | 64 (≈ 48.7 µM) | 128 (≈ 97.4 µM) | 128 (≈ 97.4 µM) | 128 (≈ 97.4 µM) | 64 (≈ 48.7 µM) | 128 (≈ 97.4 µM) | 128 (≈ 97.4 µM) | 128 (≈ 97.4 µM) | 64 (≈ 48.7 µM) | 64 (≈ 48.7 µM) | 128 (≈ 97.4 µM) | 128 (≈ 97.4 µM) | 128 (≈ 97.4 µM) | 128 (≈ 97.4 µM) | > 128 | 64 (≈ 48.7 µM) |  |
| CCOC(=O)C(NCCCNC(=O)[C@@H](NC(=O)OCc1ccccc1)C(C)O)C(O)[C@H]1O[C@H](n2ccc(=O)[nH]c2=O)[C@H](OC(C)=O)[C@@H]1OC(C)=O (stereo partly drawn) [Example 31a, Ethyl (5S)-12-[(R)-[(2R,3R,4R,5S)-3,4-bis(acetyloxy)-5-(2,4-dioxo-3,4-dihydro-1(2H)-pyrimidinyl)tetrahydro-2-furanyl](hydroxy)methyl]-5-[(1S)-1-hydroxyethyl]-3,6-dioxo-1-phenyl-2-oxa-4,7,11-triazatridecan-13-oate] |  |  |  |  |  |  |  |  |  |  |  |  |  |  |  |  |  |  |  |  | MIC (E. coli GC 4559; E. coli GC 4559, read-out: MIC): > 128 µg/mL; MIC (E. coli GC 4560; E. coli GC 4560, read-out: MIC): 128 µg/mL (≈ 177 µM); MIC (E. coli GC 3226; E. coli GC 3226, read-out: MIC): 128 µg/mL (≈ 177 µM); MIC (S. marcescens GC 4077; [1]): 128 µg/mL (≈ 177 µM); MIC (C. albicans GC 3066; [2]): 128 µg/mL (≈ 177 µM); MIC (M. morganii GC 4531; [3]): 128 µg/mL (≈ 177 µM); MIC (K. pneumoniae GC 4534; [4]): 128 µg/mL (≈ 177 µM); MIC (E. cloacae GC 3783; [5]): 128 µg/mL (≈ 177 µM); MIC (P. aeruginosa GC 4532; [6]): 128 µg/mL (≈ 177 µM); MIC (CNS GC 4537; CNS GC 4537, read-out: MIC): > 128 µg/mL; MIC (CNS GC 4538; CNS GC 4538, read-out: MIC): > 128 µg/mL; MIC (CNS GC 4547; CNS GC 4547, read-out: MIC): > 128 µg/mL; MIC (E. faecalis GC 2242; [7]): 128 µg/mL (≈ 177 µM); MIC (E. faecalis GC 4555; [8]): 128 µg/mL (≈ 177 µM); MIC (E. faecalis GC 842; [9]): 128 µg/mL (≈ 177 µM); MIC (S. aureus GC 1131; [10]): > 128 µg/mL; MIC (S. aureus GC 2216; [11]): > 128 µg/mL; MIC (S. aureus GC 4536; [12]): > 128 µg/mL; MIC (E. coli GC 2203; E. coli GC 2203, read-out: MIC): 128 µg/mL (≈ 177 µM); MIC (P. aeruginosa GC 2214; [13]): 128 µg/mL (≈ 177 µM) |
| CCOC(=O)C(NCCCNC(=O)[C@@H](N)[C@H](C)O)[C@@H](O)[C@H]1O[C@H](n2ccc(=O)[nH]c2=O)[C@H](OC(C)=O)[C@@H]1OC(C)=O (stereo partly drawn) [Example 32, Ethyl (3R)-2-[(3-{[(2S,3S)-2-amino-3-hydroxybutanoyl]amino}propyl)amino]-3-[(2R,3R,4R,5S)-3,4-bis(acetyloxy)-5-(2,4-dioxo-3,4-dihydro-1(2H)-pyrimidinyl)tetrahydro-2-furanyl]-3-hydroxypropanoate] |  |  |  |  |  |  |  |  |  |  |  |  |  |  |  |  |  |  |  |  | MIC (E. coli GC 4559; E. coli GC 4559, read-out: MIC): > 128 µg/mL; MIC (E. coli GC 4560; E. coli GC 4560, read-out: MIC): > 128 µg/mL; MIC (E. coli GC 3226; E. coli GC 3226, read-out: MIC): > 128 µg/mL; MIC (S. marcescens GC 4077; [1]): > 128 µg/mL; MIC (C. albicans GC 3066; [2]): > 128 µg/mL; MIC (M. morganii GC 4531; [3]): > 128 µg/mL; MIC (K. pneumoniae GC 4534; [4]): > 128 µg/mL; MIC (E. cloacae GC 3783; [5]): > 128 µg/mL; MIC (P. aeruginosa GC 4532; [6]): > 128 µg/mL; MIC (CNS GC 4537; CNS GC 4537, read-out: MIC): > 128 µg/mL; MIC (CNS GC 4538; CNS GC 4538, read-out: MIC): > 128 µg/mL; MIC (CNS GC 4547; CNS GC 4547, read-out: MIC): > 128 µg/mL; MIC (E. faecalis GC 2242; [7]): > 128 µg/mL; MIC (E. faecalis GC 4555; [8]): > 128 µg/mL; MIC (E. faecalis GC 842; [9]): > 128 µg/mL; MIC (S. aureus GC 1131; [10]): > 128 µg/mL; MIC (S. aureus GC 2216; [11]): > 128 µg/mL; MIC (S. aureus GC 4536; [12]): > 128 µg/mL; MIC (E. coli GC 2203; E. coli GC 2203, read-out: MIC): > 128 µg/mL; MIC (P. aeruginosa GC 2214; [13]): > 128 µg/mL |
